# Data from ChEMBL document CHEMBL4680185, “Discovery of novel cyclin-dependent kinase (CDK) and histone deacetylase (HDAC) dual inhibitors with potent in vitro and in vivo anticancer activity” (Eur J Med Chem, 2020).
# Legend:
# Assay in all cases: cells
# HCT-116 [1] = format: functional, cell-based; details: Homo sapiens, HCT-116, 72 h
# Description: Antiproliferative activity against human HCT116 cells assessed as inhibition of cell growth incubated for 72 hrs by CCK-8 assay
# HeLa = format: functional, cell-based; details: Homo sapiens, 72 h
# Description: Antiproliferative activity against human Hela cells assessed as inhibition of cell growth incubated for 72 hrs by CCK-8 assay
# NCI-H460 [2] = format: functional; details: Homo sapiens, time 72 hrs, read-out: GI
# SMMC-7721 = format: functional, cell-based; details: Homo sapiens, SMMC-7721, 72 h
# Description: Antiproliferative activity against human SMMC7721 cells assessed as inhibition of cell growth incubated for 72 hrs by CCK-8 assay
# A-375 = format: functional, cell-based; details: Homo sapiens, A-375, 72 h
# Description: Antiproliferative activity against human A375 cells assessed as inhibition of cell growth incubated for 72 hrs by CCK-8 assay
# HCT-116 [3] = format: functional; details: Homo sapiens, time 72 hrs, read-out: GI
# NCI-H460 [4] = format: functional; details: Homo sapiens, time 72 hrs, read-out: GI; remark: listed apart in the source
# NCI-H460 [5] = format: functional, cell-based; details: Homo sapiens, NCI-H460, 72 h
# Description: Antiproliferative activity against human H460 cells assessed as inhibition of cell growth incubated for 72 hrs by CCK-8 assay
# HCT-116 [6] = format: functional; details: Homo sapiens, time 72 hrs, read-out: GI; remark: listed apart in the source
Structure (SMILES),IC50 (HCT-116 [1]),IC50 (HeLa),inhibition of growth at 2 µM (NCI-H460 [2]),IC50 (SMMC-7721),IC50 (A-375),inhibition of growth at 2 µM (HCT-116 [3]),inhibition of growth at 8 µM (NCI-H460 [4]),IC50 (NCI-H460 [5]),inhibition of growth at 8 µM (HCT-116 [6])
O=C(NO)c1ccc(CNC(=O)c2n[nH]cc2NC(=O)c2ccccc2Cl)cc1,2.4 µM,16.2 µM,26.6%,21.8 µM,6.42 µM,53.8%,29.8%,6.17 µM,71.6%
Nc1ccccc1NC(=O)c1ccc(CNC(=O)c2n[nH]cc2NC(=O)c2ccccc2)cc1,1.66 µM,4.06 µM,11.8%,6.62 µM,1.59 µM,62.9%,61.7%,6.32 µM,88.6%
O=C(CCCCNC(=O)c1n[nH]cc1NC(=O)c1c(F)cccc1F)NO,–,–,0.4%,–,–,5.76%,15.8%,–,14.9%
O=C(CCCCCNC(=O)c1n[nH]cc1NC(=O)c1c(Cl)cccc1Cl)NO,–,–,15.1%,–,–,3.02%,21.3%,–,4.66%
O=C(CCCCCCNC(=O)c1n[nH]cc1NC(=O)c1c(F)cccc1F)NO,–,–,3.57%,–,–,12.1%,6.84%,–,13.8%
O=C(Cc1ccc(NC(=O)c2n[nH]cc2NC(=O)c2c(Cl)cccc2Cl)cc1)NO,2.4 µM,7.15 µM,10.5%,12.3 µM,4.61 µM,62.1%,75.1%,6.88 µM,75.8%
O=C(CCCCCNC(=O)c1n[nH]cc1NC(=O)c1c(F)cccc1F)NO,–,–,22.9%,–,–,4.87%,28.8%,–,59.4%
Nc1ccccc1NC(=O)Cc1ccc(NC(=O)c2n[nH]cc2NC(=O)c2ccccc2F)cc1,–,–,6.06%,–,–,16.5%,23.4%,–,20.4%
O=C(Cc1ccc(NC(=O)c2n[nH]cc2NC(=O)c2c(F)cccc2Cl)cc1)NO,–,–,12.5%,–,–,21.7%,37%,–,44.9%
Nc1ccccc1NC(=O)c1ccc(CNC(=O)c2n[nH]cc2NC(=O)c2ccccc2F)cc1,4.8 µM,3.44 µM,7.25%,6.85 µM,2.27 µM,39.8%,57.6%,9.99 µM,81.2%
O=C(NO)c1ccc(CNC(=O)c2n[nH]cc2NC(=O)c2c(Cl)cccc2Cl)cc1,0.5 µM,4.84 µM,45.4%,14.6 µM,5.05 µM,68.7%,57.4%,10.6 µM,81.9%
Nc1ccccc1NC(=O)Cc1ccc(NC(=O)c2n[nH]cc2NC(=O)c2ccccc2Cl)cc1,–,–,3.08%,–,–,29.2%,27.8%,–,52%
Nc1ccccc1NC(=O)c1ccc(CNC(=O)c2n[nH]cc2NC(=O)c2c(F)cccc2F)cc1,1.13 µM,4.48 µM,13.9%,15.2 µM,1.7 µM,73.1%,80.5%,7.79 µM,79.1%
COc1ccccc1C(=O)Nc1c[nH]nc1C(=O)NCc1ccc(C(=O)NO)cc1,–,–,16%,–,–,43.8%,45.6%,–,68.8%
COc1ccccc1C(=O)Nc1c[nH]nc1C(=O)NCc1ccc(C(=O)Nc2ccccc2N)cc1,3.68 µM,8.13 µM,5.73%,8.32 µM,2.66 µM,23.5%,45.5%,7.35 µM,75.4%
O=C(Cc1ccc(NC(=O)c2n[nH]cc2NC(=O)c2ccccc2)cc1)NO,–,–,11.8%,–,–,9.56%,23.1%,–,14.2%
Nc1ccccc1NC(=O)c1ccc(CNC(=O)c2n[nH]cc2NC(=O)c2c(F)cccc2Cl)cc1,0.7 µM,3.27 µM,50.1%,16.3 µM,1.2 µM,78.7%,75%,3.63 µM,83.8%
